Laboratory results taken from ChEMBL document CHEMBL1201862, “PubChem BioAssay data set” (2004).
Calls of active or inactive are those of the source.

Experiments:
Caspase-3 = target: T1, Caspase-3 (Homo sapiens, UniProt P42574); assay: SAR Analysis of small molecule inhibitors of Sentrin-specific proteases (SENPs) using a Caspase-3 Selectivity assay. [Related pubchem assays (depositor defined):AID2540, AID2599, AID434973, AID489001]; assay type: functional
T1 sequence (P42574 whole entry): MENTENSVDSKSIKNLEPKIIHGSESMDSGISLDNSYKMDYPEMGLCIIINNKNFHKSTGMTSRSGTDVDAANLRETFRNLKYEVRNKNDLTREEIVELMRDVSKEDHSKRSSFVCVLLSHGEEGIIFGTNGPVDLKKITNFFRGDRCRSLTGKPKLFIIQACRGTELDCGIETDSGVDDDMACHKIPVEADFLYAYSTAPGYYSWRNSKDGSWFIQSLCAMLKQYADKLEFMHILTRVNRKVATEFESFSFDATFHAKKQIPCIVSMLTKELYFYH

[1] = target: T2, Sentrin-specific protease 7 (Homo sapiens, UniProt Q9BQF6); assay: SENP7 protease inhibitors, SAR follow-up, biochemical, luminescence (AID 504497); assay type: functional
T2 sequence (Q9BQF6 whole entry): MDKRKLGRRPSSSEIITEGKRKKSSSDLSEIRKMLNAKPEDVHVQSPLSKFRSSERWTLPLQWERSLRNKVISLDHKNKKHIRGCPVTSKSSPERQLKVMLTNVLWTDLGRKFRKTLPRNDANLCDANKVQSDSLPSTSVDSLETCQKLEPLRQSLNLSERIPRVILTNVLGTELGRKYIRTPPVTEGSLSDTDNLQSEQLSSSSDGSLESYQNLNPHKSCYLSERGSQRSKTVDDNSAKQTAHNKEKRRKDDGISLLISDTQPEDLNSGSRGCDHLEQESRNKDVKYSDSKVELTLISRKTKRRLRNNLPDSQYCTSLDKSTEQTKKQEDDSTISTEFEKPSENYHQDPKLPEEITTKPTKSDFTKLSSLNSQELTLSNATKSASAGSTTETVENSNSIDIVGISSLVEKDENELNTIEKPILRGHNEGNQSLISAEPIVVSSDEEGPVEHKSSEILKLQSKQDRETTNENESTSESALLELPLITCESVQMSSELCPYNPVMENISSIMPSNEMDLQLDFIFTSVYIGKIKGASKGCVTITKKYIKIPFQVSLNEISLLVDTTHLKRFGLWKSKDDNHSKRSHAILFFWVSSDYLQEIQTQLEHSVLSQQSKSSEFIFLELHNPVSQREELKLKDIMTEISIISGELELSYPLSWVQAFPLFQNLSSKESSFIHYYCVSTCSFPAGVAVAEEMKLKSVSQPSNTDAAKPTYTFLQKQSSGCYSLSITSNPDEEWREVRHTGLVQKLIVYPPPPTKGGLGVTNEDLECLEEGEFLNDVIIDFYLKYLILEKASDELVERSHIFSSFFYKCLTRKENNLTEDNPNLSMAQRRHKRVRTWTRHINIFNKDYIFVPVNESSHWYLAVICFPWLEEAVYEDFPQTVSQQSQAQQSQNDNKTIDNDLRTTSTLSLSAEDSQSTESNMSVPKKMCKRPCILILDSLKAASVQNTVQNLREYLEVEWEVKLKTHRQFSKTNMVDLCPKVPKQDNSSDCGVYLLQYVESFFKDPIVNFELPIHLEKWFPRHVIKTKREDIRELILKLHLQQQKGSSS

[2] = target: T3, Sentrin-specific protease 6 (Homo sapiens, UniProt Q9GZR1); assay: SAR Analysis of small molecule inhibitors of Sentrin-specific protease 6 (SENP6) using a Luminescent assay. [Related pubchem assays (depositor defined):AID2582, AID2599]; assay type: functional
T3 sequence (Q9GZR1 whole entry): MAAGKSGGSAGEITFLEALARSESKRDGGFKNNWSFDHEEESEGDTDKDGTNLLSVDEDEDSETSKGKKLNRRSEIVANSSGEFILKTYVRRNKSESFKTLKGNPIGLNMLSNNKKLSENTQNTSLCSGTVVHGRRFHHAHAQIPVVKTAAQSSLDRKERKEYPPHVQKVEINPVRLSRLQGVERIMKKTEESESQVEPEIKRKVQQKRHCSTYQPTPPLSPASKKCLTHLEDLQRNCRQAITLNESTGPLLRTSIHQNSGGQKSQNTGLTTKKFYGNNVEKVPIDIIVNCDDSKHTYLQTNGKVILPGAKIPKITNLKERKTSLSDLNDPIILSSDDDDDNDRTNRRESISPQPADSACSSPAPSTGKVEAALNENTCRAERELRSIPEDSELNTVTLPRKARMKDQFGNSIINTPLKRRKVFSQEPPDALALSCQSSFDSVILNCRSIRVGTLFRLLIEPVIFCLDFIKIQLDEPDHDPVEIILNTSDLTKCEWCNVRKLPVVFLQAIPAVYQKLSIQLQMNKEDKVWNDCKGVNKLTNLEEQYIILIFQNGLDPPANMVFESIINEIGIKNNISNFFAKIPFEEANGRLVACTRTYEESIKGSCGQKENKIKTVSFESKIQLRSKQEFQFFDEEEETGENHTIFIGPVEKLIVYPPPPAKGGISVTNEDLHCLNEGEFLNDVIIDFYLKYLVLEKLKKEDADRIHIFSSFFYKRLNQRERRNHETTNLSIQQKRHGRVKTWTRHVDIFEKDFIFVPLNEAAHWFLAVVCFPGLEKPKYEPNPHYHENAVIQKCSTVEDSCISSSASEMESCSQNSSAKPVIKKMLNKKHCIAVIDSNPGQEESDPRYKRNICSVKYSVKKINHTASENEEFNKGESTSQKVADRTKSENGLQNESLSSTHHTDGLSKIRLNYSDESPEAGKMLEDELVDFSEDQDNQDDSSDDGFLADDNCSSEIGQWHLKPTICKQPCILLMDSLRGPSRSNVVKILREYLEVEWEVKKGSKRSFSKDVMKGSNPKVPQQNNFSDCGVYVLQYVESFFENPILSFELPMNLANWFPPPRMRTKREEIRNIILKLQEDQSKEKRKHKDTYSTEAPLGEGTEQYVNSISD

[3] = target: T4, Sentrin-specific protease 8 (Homo sapiens, UniProt Q96LD8); assay: SENP8 protease inhibitors, SAR follow-up, biochemical, luminescence (AID 504501); assay type: functional
T4 sequence (Q96LD8 whole entry): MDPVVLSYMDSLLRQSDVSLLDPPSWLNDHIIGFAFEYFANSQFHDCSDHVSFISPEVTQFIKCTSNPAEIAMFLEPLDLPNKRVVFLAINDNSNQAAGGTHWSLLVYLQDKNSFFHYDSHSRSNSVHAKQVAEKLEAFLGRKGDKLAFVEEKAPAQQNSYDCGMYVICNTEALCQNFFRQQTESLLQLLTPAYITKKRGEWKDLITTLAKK

[4] = target: Voltage-gated inwardly rectifying potassium channel KCNH2 (Homo sapiens, UniProt Q12809); settings: Potency;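 note: confirmatory quantitative high-throughput screen measuring inhibition of hERG channel activity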
HEK293 [5] = assay: HEK cell cytotoxicity by LDH release, dose response, cytotoxicity control for IDE activator project, fluorescence, HEK cells (AID 588440); assay type: functional, cell-based; settings: Homo sapiens;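 note: cytotoxicity by LDH release measuring loss of membrane integrity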
[6] = Luminescence Cell-Based Dose Retest to Confirm Inhibitors of Cancer Stem Cells. [Related pubchem assays (depositor defined):AID2717, AID2721]; assay type: functional; settings: Homo sapiens
Insulin-degrading enzyme [7] = target: T5, Insulin-degrading enzyme (Homo sapiens, UniProt P14735); assay: activators of endogenous IDE in HEK cells, dose response, cell-based, fluorescence polarization (AID 588439); assay type: functional
T5 sequence (P14735 whole entry): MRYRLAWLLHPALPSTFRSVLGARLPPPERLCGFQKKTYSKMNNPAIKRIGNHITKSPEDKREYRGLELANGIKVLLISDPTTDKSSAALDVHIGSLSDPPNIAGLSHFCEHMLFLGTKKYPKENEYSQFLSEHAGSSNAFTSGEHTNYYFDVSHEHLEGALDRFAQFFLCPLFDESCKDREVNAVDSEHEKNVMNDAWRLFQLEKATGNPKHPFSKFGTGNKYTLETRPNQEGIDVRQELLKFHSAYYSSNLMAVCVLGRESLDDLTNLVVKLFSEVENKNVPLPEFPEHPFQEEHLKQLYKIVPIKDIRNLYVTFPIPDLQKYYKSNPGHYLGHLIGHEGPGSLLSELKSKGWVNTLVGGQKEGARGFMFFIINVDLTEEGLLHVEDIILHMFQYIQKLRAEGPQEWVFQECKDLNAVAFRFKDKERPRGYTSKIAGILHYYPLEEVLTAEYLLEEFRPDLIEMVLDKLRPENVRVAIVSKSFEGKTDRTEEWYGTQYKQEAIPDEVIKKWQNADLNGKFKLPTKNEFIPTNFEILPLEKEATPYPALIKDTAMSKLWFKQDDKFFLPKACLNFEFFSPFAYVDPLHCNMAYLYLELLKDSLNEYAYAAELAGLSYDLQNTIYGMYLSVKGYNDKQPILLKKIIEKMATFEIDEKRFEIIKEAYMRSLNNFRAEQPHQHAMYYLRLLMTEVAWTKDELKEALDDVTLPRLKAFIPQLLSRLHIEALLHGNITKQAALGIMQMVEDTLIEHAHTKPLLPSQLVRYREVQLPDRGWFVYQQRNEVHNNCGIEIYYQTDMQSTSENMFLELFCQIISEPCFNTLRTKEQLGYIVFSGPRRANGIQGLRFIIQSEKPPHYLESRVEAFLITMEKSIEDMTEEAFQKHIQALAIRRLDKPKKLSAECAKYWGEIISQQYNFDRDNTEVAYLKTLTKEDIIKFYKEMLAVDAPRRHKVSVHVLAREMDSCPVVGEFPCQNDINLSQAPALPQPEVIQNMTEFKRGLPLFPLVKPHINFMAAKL

Insulin-degrading enzyme [8] = target: T5, Insulin-degrading enzyme; assay: activators of recombinant IDE enzyme, dose response, counter-screen for IDE activator project, biochemical, fluorescence polarization (AID 588681)
[9] = target: NAD-dependent protein deacylase sirtuin-5, mitochondrial (Homo sapiens, UniProt Q9NXA8); assay: SIRT5 desuccinylase inhibitors, dose response, biochemical, fluorescence imaging, cherry-pick, set 5 (AID 720591);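 note: desuccinylation of succinyl peptide AMC substrate read as fluorescence after trypsin release; potency of inhibitors that lower fluorescence and may act on trypsin instead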
HEK293 [10] = assay: optical interference in Abeta FP readout, dose response, artefact control for IDE activator project, biochemical, fluorescence polarization (AID 588442); assay type: functional, cell-based; settings: Homo sapiens
Mu-type opioid receptor = Mu-type opioid receptor (Homo sapiens, UniProt P35372); assay type: functional, cell-based;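 note: U2OS cells with beta-arrestin recruitment to OPRM1 by beta-gal complementation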
[11] = target: 5-hydroxytryptamine receptor 2A (Mus musculus, UniProt P35363); assay type: functional, cell-based;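 note: CHO-K1 cells with tagged receptor and beta-arrestin; agonist potency measured as compound-induced activation of the receptor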
Cytochrome P450 1A2 = target: T6, Cytochrome P450 1A2 (Homo sapiens, UniProt P05177);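 note: PubChem cytochrome P450 panel assay, CYP1A2 panel member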
T6 sequence (P05177 whole entry): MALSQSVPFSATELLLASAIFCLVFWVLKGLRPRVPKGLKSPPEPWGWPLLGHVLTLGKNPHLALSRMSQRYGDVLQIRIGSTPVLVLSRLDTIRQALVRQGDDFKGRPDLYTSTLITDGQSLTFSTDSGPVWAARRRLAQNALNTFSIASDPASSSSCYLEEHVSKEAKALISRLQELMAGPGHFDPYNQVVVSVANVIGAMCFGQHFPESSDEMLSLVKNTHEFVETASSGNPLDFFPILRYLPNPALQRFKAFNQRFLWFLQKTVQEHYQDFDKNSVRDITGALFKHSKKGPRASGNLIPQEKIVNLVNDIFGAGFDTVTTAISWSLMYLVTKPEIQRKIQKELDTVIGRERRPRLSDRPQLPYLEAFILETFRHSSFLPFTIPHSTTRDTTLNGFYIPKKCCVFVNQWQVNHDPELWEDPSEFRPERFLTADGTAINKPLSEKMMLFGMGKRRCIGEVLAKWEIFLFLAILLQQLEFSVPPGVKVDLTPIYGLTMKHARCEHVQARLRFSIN

Sequence of 5-hydroxytryptamine receptor 2A (P35363 whole entry): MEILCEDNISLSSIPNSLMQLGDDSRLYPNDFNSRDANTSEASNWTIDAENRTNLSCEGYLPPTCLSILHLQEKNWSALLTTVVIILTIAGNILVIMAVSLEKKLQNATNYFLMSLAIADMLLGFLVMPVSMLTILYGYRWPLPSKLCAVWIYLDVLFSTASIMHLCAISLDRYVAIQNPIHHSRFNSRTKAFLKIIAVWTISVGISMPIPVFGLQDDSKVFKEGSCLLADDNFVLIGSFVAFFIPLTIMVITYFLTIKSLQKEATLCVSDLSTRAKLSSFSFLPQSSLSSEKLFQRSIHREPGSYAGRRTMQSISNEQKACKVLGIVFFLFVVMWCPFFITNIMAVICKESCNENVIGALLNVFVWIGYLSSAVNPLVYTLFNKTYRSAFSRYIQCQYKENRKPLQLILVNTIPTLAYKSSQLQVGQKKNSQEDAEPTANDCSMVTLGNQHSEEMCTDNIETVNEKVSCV
Sequence of Mu-type opioid receptor (P35372 whole entry): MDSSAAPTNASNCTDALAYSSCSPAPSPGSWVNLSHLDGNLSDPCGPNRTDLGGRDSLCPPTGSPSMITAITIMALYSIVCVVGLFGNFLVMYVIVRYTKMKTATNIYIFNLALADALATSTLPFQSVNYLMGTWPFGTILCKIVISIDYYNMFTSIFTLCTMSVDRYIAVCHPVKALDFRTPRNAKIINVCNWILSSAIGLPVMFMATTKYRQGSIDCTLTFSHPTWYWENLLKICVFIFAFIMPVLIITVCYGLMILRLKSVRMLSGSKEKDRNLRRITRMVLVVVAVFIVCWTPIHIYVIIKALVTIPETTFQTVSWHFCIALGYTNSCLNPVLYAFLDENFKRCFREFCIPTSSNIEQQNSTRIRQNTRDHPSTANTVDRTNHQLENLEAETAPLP
Sequence of Voltage-gated inwardly rectifying potassium channel KCNH2 (Q12809 whole entry): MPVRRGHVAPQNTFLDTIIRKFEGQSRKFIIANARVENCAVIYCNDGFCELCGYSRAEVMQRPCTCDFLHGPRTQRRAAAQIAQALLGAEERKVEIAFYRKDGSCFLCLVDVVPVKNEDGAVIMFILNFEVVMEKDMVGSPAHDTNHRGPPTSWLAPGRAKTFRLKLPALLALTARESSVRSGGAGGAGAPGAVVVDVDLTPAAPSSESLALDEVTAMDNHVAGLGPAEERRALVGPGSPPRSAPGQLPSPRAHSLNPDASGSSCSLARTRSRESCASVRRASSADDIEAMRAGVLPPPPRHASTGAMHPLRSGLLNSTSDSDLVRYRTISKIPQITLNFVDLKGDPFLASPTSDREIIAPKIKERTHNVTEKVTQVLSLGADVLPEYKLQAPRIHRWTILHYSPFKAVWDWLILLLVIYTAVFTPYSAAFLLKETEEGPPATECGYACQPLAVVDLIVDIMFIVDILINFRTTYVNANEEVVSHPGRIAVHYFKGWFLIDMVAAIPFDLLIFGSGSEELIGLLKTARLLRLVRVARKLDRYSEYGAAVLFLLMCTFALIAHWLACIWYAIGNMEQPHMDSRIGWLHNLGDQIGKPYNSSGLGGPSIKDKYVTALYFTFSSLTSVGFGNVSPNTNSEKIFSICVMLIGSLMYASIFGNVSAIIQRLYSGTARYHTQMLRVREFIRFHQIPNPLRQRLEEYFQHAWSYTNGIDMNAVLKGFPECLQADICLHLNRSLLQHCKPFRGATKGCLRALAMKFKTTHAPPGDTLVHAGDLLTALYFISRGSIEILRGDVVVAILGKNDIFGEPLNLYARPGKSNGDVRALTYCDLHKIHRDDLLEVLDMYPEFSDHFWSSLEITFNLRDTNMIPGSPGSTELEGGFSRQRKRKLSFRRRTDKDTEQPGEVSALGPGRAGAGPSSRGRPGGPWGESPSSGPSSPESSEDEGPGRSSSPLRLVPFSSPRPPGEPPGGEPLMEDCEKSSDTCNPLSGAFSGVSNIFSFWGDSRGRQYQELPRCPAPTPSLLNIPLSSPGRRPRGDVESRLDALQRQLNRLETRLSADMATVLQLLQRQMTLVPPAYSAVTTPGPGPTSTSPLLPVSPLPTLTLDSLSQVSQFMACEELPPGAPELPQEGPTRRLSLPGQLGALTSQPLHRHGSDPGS
Sequence of NAD-dependent protein deacylase sirtuin-5, mitochondrial (Q9NXA8 whole entry): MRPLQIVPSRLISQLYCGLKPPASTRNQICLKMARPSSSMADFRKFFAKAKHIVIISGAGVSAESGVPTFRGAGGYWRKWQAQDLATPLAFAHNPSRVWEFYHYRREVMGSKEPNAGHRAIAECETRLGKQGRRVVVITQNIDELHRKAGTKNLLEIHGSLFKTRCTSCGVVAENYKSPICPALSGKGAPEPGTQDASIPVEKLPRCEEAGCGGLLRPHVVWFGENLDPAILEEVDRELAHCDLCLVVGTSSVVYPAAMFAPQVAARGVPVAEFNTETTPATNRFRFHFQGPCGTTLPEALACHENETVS

IC50 (Caspase-3) | IC50 [1] | IC50 [2] | SMILES | IC50 [3] | AC50 [4] | IC50 (HEK293 [5]) | AC50 [6] | EC50 (Insulin-degrading enzyme [7]) | EC50 (Insulin-degrading enzyme [8]) | AC50 [9] | EC50 (HEK293 [10]) | EC50 (Mu-type opioid receptor) | EC50 [11] | AC50 (Cytochrome P450 1A2)
> 99 µM (inactive) | > 99 µM (inactive) | > 99 µM (inactive) | O=C(NCCc1ccccc1)C(=O)c1c[nH]c2ccccc12 | > 99 µM (inactive) |  |  |  |  |  |  |  |  |  | 
 |  |  | CCCCCCCC/C=C\CCCCCCCC(=O)NCCc1ccc(O)c(O)c1 [OLEOYL DOPAMINE] |  | 35.5 µM (inconclusive) | 30.5 µM (inactive) | 2.59 µM (active) | 8.94 µM (active) | > 54.7 µM (inactive) | 18.1 µM (active) | > 54.7 µM (inactive) | 92.3 µM (inactive) | 0.957 µM (active) | 20 µM (inconclusive)
